Test results reported in BindingDB's records for doi:10.7270/Q2JM286J (Burnham Center For Chemical Genomics, 2012).

These compounds were tested against Prothrombin (Bos taurus, UniProt P00735) (assay: thrombin protease inhibitors – biochemical, fluorescence polarization, uHTS hits, dose response (AID 602369)).

Compound	IC50 [µM]
NS(=O)(=O)c1ccc(N=CCC(=O)c2ccc3ccccc3c2)cc1 [4-(3-Naphthalen-2-yl-3-oxo-propenylamino)-benzenesulfonamide]	56.5
COc1cc(C=c2[nH]c3n(c2=O)CCCCC=3)ccc1O [SMR000149996]	29.7
C=CCN1C(=O)C(/C=N/c2cccc([N+](=O)[O-])c2)C(=O)N(CCCC)C1=O (stereo not given) [MLS000543529]	42.7
COC1=CC(=Cc2c(C)[nH]n(-c3cccc(Br)c3)c2=O)C=C(OC)C1=O	39
Cc1[nH]c2ccccc2c1/C=C1\N=C(c2ccccc2)OC1=O [(4Z)-4-[(2-methyl-1H-indol-3-yl)methylidene]-2-phenyl-5-oxazolone]	7.22
CC(c1sc(S)nc1O)c1sc(S)nc1O [5-[1-(4-oxidanylidene-2-sulfanylidene-1,3-thiazolidin-5-yl)ethyl]-2-sulfanylidene-1,3-thiazolidin-4-one]	52.4
O=[N+]([O-])c1ccc(N=NCc2cccn2-c2ccccc2)nc1 [SMR000161089]	29.5
CCN(CC)CCOC(=O)c1ccc(N=CC(C#N)c2nc(-c3ccc4c(c3)OCO4)cs2)cc1 (stereo not given) [2-(diethylamino)ethyl 4-[[(Z)-2-[4-(1,3-benzodioxol-5-yl)-1,3-thiazol-2-yl]-2-cyano-ethenyl]amino]benzoate]	56.1
C=c1[nH]c2ccc(C)cc2c1=Cc1c(N)n2oc(C)cc2nc1=O [MLS000730959]	32.1
O=c1c(Cl)c(N=NCc2ccc(Br)cc2)cnn1-c1ccccc1	> 100
Oc1csc(=S)n1N=Cc1ccc(Cl)s1 [3-[(5-chlorothiophen-2-yl)methylideneamino]-2-sulfanylidene-1,3-thiazolidin-4-one]	27.1
O=C1C=CC([N+](=O)[O-])=CC1C=NN=C1NS(=O)(=O)c2ccccc21 (stereo not given)	36.8
O=[N+]([O-])c1ccc(N=NCc2ccc[nH]2)cc1 [MLS000595102]	9.84
COC1=CC([N+](=O)[O-])=CC(/C=N/NC(=O)c2cncc(Br)c2)C1=O (stereo not given) [5-bromo-N'-[(E)-(5-methoxy-3-nitro-6-oxo-1-cyclohexa-2,4-dienylidene)methyl]-3-pyridinecarbohydrazide]	39.1
C=C(C=C(C)c1sc(S)nc1O)c1sc(S)nc1O [MLS000723803]	87.5
Cc1cc(=O)[nH]c(N=NCc2c(O)n(-c3ccccc3)c(=O)c3ccccc23)n1 [SMR000221270]	37.2
CN(CCO)c1ccc(CN=Nc2ccc([N+](=O)[O-])cc2S(=O)(=O)Nc2ccccc2C(=O)O)cc1	36.4
CC1(C)CC(=O)C(=CNCC2CCN(C(=O)Cc3ccccc3)CC2)C(=O)C1 [5,5-dimethyl-2-[[[1-(2-phenylacetyl)piperidin-4-yl]methylamino]methylidene]cyclohexane-1,3-dione]	> 100

Compound	IC50 [µM]
C=c1[nH]n(-c2nnc(C)c(=O)[nH]2)c(=O)c1=Cc1ccc(N(CC)CC)cc1 [3-{4-[1-(4-Diethylamino-phenyl)-meth-(Z)-ylidene]-3-methyl-5-oxo-4,5-dihydro-pyrazol-1-yl}-6-methyl-4H -[1,2,4]triazin-5-one]	49.9
O=[N+]([O-])c1ccc(N=NCc2c[nH]c3ccccc23)cc1 [MLS000573812]	2.05
CCOC(=O)C1C(=O)C(=Cc2ccc(-c3ccccc3C(=O)O)o2)SC1=Nc1ccc(OC)cc1 (stereo not given)	13.1
CCCCCCCCCCCC1N=C(N)N=C(CCCO)C1C(=O)OC (stereo not given) [SMR001565729]	42.3
COc1cc2c3c(c1)C(C)=CC(C)(C)N3C(=O)C2=O [MLS000688351]	11.4
CC(=O)C1C(=O)OC(=CC=Cc2ccccc2)C1=O (stereo not given) [3-acetyl-5-cinnamylidene-4-hydroxy-2-furanone]	50.4
Cc1[nH]n(-c2ccccc2)c(=O)c1C=C1NC(=S)NC1=O [5-methyl-4-[(Z)-(5-oxo-2-sulfanylideneimidazolidin-4-ylidene)methyl]-2-phenyl-4H-pyrazol-3-one]	52.8
COC1=CC([N+](=O)[O-])=CC(/C=N/NC(=O)c2cc(-c3ccccc3)nc3ccccc23)C1=O (stereo not given)	75.1
O=C(N/N=C/C1C=C([N+](=O)[O-])C=CC1=O)c1cc(-c2ccccc2)nc2ccccc12 (stereo not given) [N'-[(E)-(3-nitro-6-oxo-1-cyclohexa-2,4-dienylidene)methyl]-2-phenyl-4-quinolinecarbohydrazide]	10.7
CSc1nsc(CC=Nc2ccc(C(=O)O)cc2)c1C#N [4-({2-[4-cyano-3-(methylsulfanyl)-5-isothiazolyl]vinyl}amino)benzenecarboxylic acid]	27.6
CCN(CC)CCOC(=O)c1ccc(N=CC(C#N)c2nc(-c3ccc(OC)c(OC)c3)cs2)cc1 (stereo not given) [SMR000434079]	28.7
CC1=NC(=O)NC(c2ccc(N3CCOCC3)cc2)C1C(=O)c1ccccc1 (stereo not given) [5-benzoyl-6-methyl-4-[4-(4-morpholinyl)phenyl]-3,4-dihydro-1H-pyrimidin-2-one]	15.5
O=C1c2ccccc2SC1/C=N/c1cc([N+](=O)[O-])ccc1O (stereo not given) [(2Z)-2-[[(5-nitro-2-oxidanyl-phenyl)amino]methylidene]-1-benzothiophen-3-one]	2.57
O=C(N/N=C/C1C=C(Cl)C=C([N+](=O)[O-])C1=O)c1ccccc1NS(=O)(=O)c1cccs1 (stereo not given) [SMR000364876]	85.5
O=C1N=C(Nc2ccc(Cl)cc2Cl)SC1=Cc1c[nH]c2ccccc12	38.3
COc1cc(C=CC(=O)C2C(=O)NC(=O)N(CCc3ccccc3)C2=O)ccc1O (stereo not given) [SMR000221203]	40.6
CC[n+]1c(CC=Nc2ccccc2)oc2ccc(OC)cc21	55.6
